# System: not given
# Assay: not given
row,melting point,Compound
1,235 to 237 °C,"COc1ccc2nc(NC(=O)C(CC3CCCC3)c3ccc(S(=O)(=O)NC4CC4)cc3)sc2n1 (stereo not shown) [Example 4, 3-Cyclopentyl-2-(4-cyclopropylsulfamoyl-phenyl)-N-(5-methoxy-thiazolo[5,4-b]pyridin-2-yl)-propionamide]"
2,209 to 211 °C,"COCCNS(=O)(=O)c1ccc(C(CC2CCCC2)C(=O)Nc2nc3ccc(OC)nc3s2)cc1 (stereo not shown) [Example 5, 3-Cyclopentyl-2-[4-(2-methoxy-ethylsulfamoyl)-phenyl]-N-(5-methoxy-thiazolo[5,4-b]pyridin-2-yl)-propionamide]"
3,179 to 181 °C,"COc1cccc(CNS(=O)(=O)c2ccc(C(CC3CCCC3)C(=O)Nc3nc4ccc(OC)nc4s3)cc2)c1 (stereo not shown) [Example 6, 3-Cyclopentyl-2-[4-(3-methoxy-benzylsulfamoyl)-phenyl]-N-(5-methoxy-thiazolo[5,4-b]pyridin-2-yl)-propionamide]"
4,223 to 226 °C,"COc1ccc2nc(NC(=O)C(CC3CCCC3)c3ccc(S(=O)(=O)Nc4ccccc4)cc3)sc2n1 (stereo not shown) [Example 7, 3-Cyclopentyl-N-(5-methoxy-thiazolo[5,4-b]pyridin-2-yl)-2-(4-phenylsulfamoyl-phenyl)-propionamide]"
5,83 to 85 °C,"COc1ccc2nc(NC(=O)C(CC3CCCC3)c3ccc(S(=O)(=O)N(C(C)C)C(C)C)cc3)sc2n1 (stereo not shown) [Example 9, 3-Cyclopentyl-2-(4-diisopropylsulfamoyl-phenyl)-N-(5-methoxy-thiazolo[5,4-b]pyridin-2-yl)-propionamide]"
6,244 to 247 °C,"COc1ccc2nc(NC(=O)C(CC3CCCC3)c3ccc(S(=O)(=O)NCc4ccco4)cc3)sc2n1 (stereo not shown) [Example 10, 3-Cyclopentyl-2-{4-[(furan-2-ylmethyl)-sulfamoyl]-phenyl}-N-(5-methoxy-thiazolo[5,4-b]pyridin-2-yl)-propionamide]"
7,83 to 85 °C,"CCCN(c1ccccc1)S(=O)(=O)c1ccc(C(CC2CCCC2)C(=O)Nc2nc3ccc(OC)nc3s2)cc1 (stereo not shown) [Example 11, 3-Cyclopentyl-N-(5-methoxy-thiazolo[5,4-b]pyridin-2-yl)-2-[4-(phenyl-propyl-sulfamoyl)-phenyl]-propionamide]"
8,229 to 234 °C,"COc1ccc2nc(NC(=O)C(CC3CCCC3)c3ccc(S(=O)(=O)N(C)C)cc3)sc2n1 (stereo not shown) [Example 12, 3-Cyclopentyl-2-(4-dimethylsulfamoyl-phenyl)-N-(5-methoxy-thiazolo[5,4-b]pyridin-2-yl)-propionamide]"
9,150 to 152 °C,"CCN(CC)S(=O)(=O)c1ccc(C(CC2CCCC2)C(=O)Nc2nc3ccc(OC)nc3s2)cc1 (stereo not shown) [Example 13, 3-Cyclopentyl-2-(4-diethylsulfamoyl-phenyl)-N-(5-methoxy-thiazolo[5,4-b]pyridin-2-yl)-propionamide]"
10,64 to 66 °C,"CCCN(CCC)S(=O)(=O)c1ccc(C(CC2CCCC2)C(=O)Nc2nc3ccc(OC)nc3s2)cc1 (stereo not shown) [Example 14, 3-Cyclopentyl-2-(4-dipropylsulfamoyl-phenyl)-N-(5-methoxy-thiazolo[5,4-b]pyridin-2-yl)-propionamide]"
11,227 to 229 °C,"COc1ccc2nc(NC(=O)C(CC3CCCC3)c3ccc(S(=O)(=O)NCc4cccnc4)cc3)sc2n1 (stereo not shown) [Example 15, 3-Cyclopentyl-N-(5-methoxy-thiazolo[5,4-b]pyridin-2-yl)-2-{4-[(pyridin-3-ylmethyl)-sulfamoyl]-phenyl}-propionamide]"
12,184 to 218 °C,"COc1ccc2nc(NC(=O)C(CC3CCCC3)c3ccc(S(=O)(=O)N4CCCCC4)cc3)sc2n1 (stereo not shown) [Example 17, 3-Cyclopentyl-N-(5-methoxy-thiazolo[5,4-b]pyridin-2-yl)-2-[4-(piperidine-1-sulfonyl)-phenyl]-propionamide]"
13,120 to 123 °C,"COc1ccc2nc(NC(=O)C(CC3CCCC3)c3ccc(S(=O)(=O)N4CCOCC4)cc3)sc2n1 (stereo not shown) [Example 18, 3-Cyclopentyl-N-(5-methoxy-thiazolo[5,4-b]pyridin-2-yl)-2-[4-(morpholine-4-sulfonyl)-phenyl]-propionamide]"
14,263 to 268 °C,"COc1ccc2nc(NC(=O)C(CC3CCCC3)c3ccc(S(=O)(=O)NCc4cccs4)cc3)sc2n1 (stereo not shown) [Example 19, 3-Cyclopentyl-N-(5-methoxy-thiazolo[5,4-b]pyridin-2-yl)-2-{4-[(thiophen-2-ylmethyl)-sulfamoyl]-phenyl}-propionamide]"
15,125 to 127 °C,"COc1ccc2nc(NC(=O)C(CC3CCCC3)c3ccc(S(=O)(=O)Nc4cccnc4)cc3)sc2n1 (stereo not shown) [Example 20, 3-Cyclopentyl-N-(5-methoxy-thiazolo[5,4-b]pyridin-2-yl)-2-[4-(pyridin-3-ylsulfamoyl)-phenyl]-propionamide]"
16,238 to 240 °C,"COc1ccc2nc(NC(=O)C(CC3CCCC3)c3ccc(S(=O)(=O)NCc4ccccc4F)cc3)sc2n1 (stereo not shown) [Example 21, 3-Cyclopentyl-2-[4-(2-fluoro-benzylsulfamoyl)-phenyl]-N-(5-methoxy-thiazolo[5,4-b]pyridin-2-yl)-propionamide]"
17,237 to 240 °C,"COc1ccc2nc(NC(=O)C(CC3CCCC3)c3ccc(S(=O)(=O)NCc4ccccc4)cc3)sc2n1 (stereo not shown) [Example 23, 2-(4-Benzylsulfamoyl-phenyl)-3-cyclopentyl-N-(5-methoxy-thiazolo[5,4-b]pyridin-2-yl)-propionamide]"
18,206 to 208 °C,"COc1ccc2nc(NC(=O)C(CC3CCCC3)c3ccc(S(=O)(=O)N(C)Cc4ccccc4)cc3)sc2n1 (stereo not shown) [Example 24, 2-[4-(Benzyl-methyl-sulfamoyl)-phenyl]-3-cyclopentyl-N-(5-methoxy-thiazolo[5,4-b]pyridin-2-yl)-propionamide]"
19,65 to 67 °C,"CCCCN(CCCC)S(=O)(=O)c1ccc(C(CC2CCCC2)C(=O)Nc2nc3ccc(OC)nc3s2)cc1 (stereo not shown) [Example 25, 3-Cyclopentyl-2-(4-dibutylsulfamoyl-phenyl)-N-(5-methoxy-thiazolo[5,4-b]pyridin-2-yl)-propionamide]"
20,106 to 110 °C,"CCN1CCN(S(=O)(=O)c2ccc(C(CC3CCCC3)C(=O)Nc3nc4ccc(OC)nc4s3)cc2)CC1 (stereo not shown) [Example 26, 3-Cyclopentyl-2-[4-(4-ethyl-piperazine-1-sulfonyl)-phenyl]-N-(5-methoxy-thiazolo[5,4-b]pyridin-2-yl)-propionamide]"
21,215 to 217 °C,"COc1ccc2nc(NC(=O)C(CC3CCCC3)c3ccc(S(=O)(=O)N4CCN(C(C)=O)CC4)cc3)sc2n1 (stereo not shown) [Example 27, 2-[4-(4-Acetyl-piperazine-1-sulfonyl)-phenyl]-3-cyclopentyl-N-(5-methoxy-thiazolo[5,4-b]pyridin-2-yl)-propionamide]"

# Molecular target: T1, recombinant GST-GK (Homo sapiens, UniProt P35557)
# T1 sequence (P35557 1-465): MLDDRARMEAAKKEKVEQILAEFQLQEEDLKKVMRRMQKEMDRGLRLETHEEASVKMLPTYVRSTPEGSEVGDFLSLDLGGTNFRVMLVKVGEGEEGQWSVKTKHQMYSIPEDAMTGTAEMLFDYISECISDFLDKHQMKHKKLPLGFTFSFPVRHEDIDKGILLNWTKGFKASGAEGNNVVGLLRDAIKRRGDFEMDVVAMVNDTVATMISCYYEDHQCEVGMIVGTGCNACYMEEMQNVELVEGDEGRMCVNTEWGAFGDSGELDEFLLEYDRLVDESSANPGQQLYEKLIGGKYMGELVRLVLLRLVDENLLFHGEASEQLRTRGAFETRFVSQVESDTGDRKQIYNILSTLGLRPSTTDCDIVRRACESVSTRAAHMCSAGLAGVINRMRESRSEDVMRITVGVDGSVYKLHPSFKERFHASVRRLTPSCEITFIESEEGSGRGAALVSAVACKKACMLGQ
# Assay: in vitro assay measuring the activation of recombinant GST-GK
# Format: biochemical
# Excerpt: The glucokinase activation in vitro may be determined by measuring the activation of recombinant GST-GK by a compound of the present invention in the absence or the presence of GKRP, a 68,000 Da protein inhibitor of GK. In these assays, formation of glucose-6-phosphate is coupled directly to the formation of thioNADH. GST-GK catalyzes the reaction of glucose and Mg-ATP to produce glucose-6-phosphate and ADP. Glucose-6-phosphate dehydrogenase (G6PDH) reduces thionicotinamide (thioNAD) to thioNADH. The assay measures the formation of […] at 405 nM.
# The basic GK assay components are as follows: 25 mM HEPES (pH 7.1), 25 mM KCl, 2.5 mM MgCl2, 1 mM ATP (Sigma A-5394), 1 mM DTT, 1 mM thioNAD (Sigma T-7375), 80 units/mL G6PDH (Sigma G-5885), 10 mM glucose and […] GST-GK (110 nM). For assessing reversal of GK inhibition by GKRP, 20 μM Fructose-1-phosphate ([…]) and 25 μg/mL of recombinant GKRP (370 nM) are added to these assay components. F-1-P at 1 μM is used as a control in the GK/GKRP assay. F-1-P reverses inhibition of GST-GK by GKRP.
# The assay is done in standard, 96-well, round-bottom plates and the total assay volume is 25 μL. […] The plates are then delivered via the Zymark XP arm to a Thermomax plate reader and read kinetically over three min at 405 nM at RT. Units are expressed as milli-optical density per minute (mOD/min).
row,EC50,Compound
1,~251 nM,"COc1ccc2nc(NC(=O)C(CC3CCCC3)c3ccc(S(=O)(=O)N4CCN(C)CC4)cc3)sc2n1 (stereo not shown) [Example 1, 3-Cyclopentyl-N-(5-methoxy-thiazolo[5,4-b]pyridin-2-yl)-2-[4-(4-methyl-piperazine-1-sulfonyl)-phenyl]-propionamide]"

# — patent publication US7750020B2, “Sulfonamide-thiazolpyridine derivatives as glucokinase activators useful the treatment of Type 2 diabetes” (Novartis AG, priority 2004, dated 2010)
